This is an account of results in patent publication US20140162968A1, “METHOD FOR SCREENING OF AGENT FOR TREATING OR PREVENTING OBESITY” (priority 2011, published 2014).

The test system of experiment [1] is lipase in the small intestines. The conditions noted are these: background statement; cited from earlier work.
A further experiment relates to PKA-α. The experiment in a line: Expression of PKA-α in the hypothalamus by Western blotting. Format: in vivo, rat. The conditions noted are these: oral anthocyanin 24 mg, 40 days, versus control; Western blot. A general note: In western blotting, separated proteins are transferred to a membrane and probed.
The subject of the next experiment is p-CREB. In words: Expression of p-CREB in the hypothalamus by Western blotting. Format: in vivo, rat. The conditions noted are these: oral anthocyanin 24 mg, 40 days, versus control; Western blot.
Experiment [2] can be described thus: Body weight change and daily food uptake in rats orally administered anthocyanin for 40 days. It is filed as in vivo, rat. Conditions: for weight increase: male Sprague-Dawley rats, control 79.33 g; for weight increase / weight at end of period: 40 days; for weight at end of period: control 116.33 g. As to the method:
For use in assay for the preventive and therapeutic effect of anthocyanin on obesity, male Sprague-Dawley rats, 60 days old (the Experimental Animal Breeding Center of the Gyeongsang National University, Jinju, Korea)) were divided groups of four which were then orally administered with anthocyanin at a dose of 6 mg and 24 mg, respectively, or not administered with anthocyanin for a control. They were maintained for 40 days in a temperature-controlled condition with lighting 06:00-20:00. While being maintained, the rats in each group were monitored for weight change and daily food uptake, and the results are shown in FIG. 1.

Experiment [3] concerns epididymal white adipose tissue. The experiment in a line: Epididymal white adipose tissue adipocyte number per unit area (hematoxylin-eosin staining). Format: in vivo, rat. The conditions noted are these: epididymal WAT, 40 days, control 18.75. On the procedure: For hematoxylin-eosin staining, an epididymal white adipose tissue (WAT) was fixed at 4° C. for 72 hrs in ice-chilled 1× PBS containing 4% para-formaldehyde, and immersed at 4° C. for 72 hrs in 20% sucrose sucrose phosphate buffer for cryoprotection. The fixed tissue was frozen with O.C.T compound (A. O. USA), and 10 μm coronal sections were made in coronal planes (Leica cryostat CM 3050, Germany). The sections were mounted on a probe-on, positively charged slide at room temperature and stored at −70° C. until use.
The animals bred as in Example 1 were collectively sacrificed at 10:00 AM 40 days after the oral administration, and epididymal white adipose tissue (WAT) was excised from each sacrificed animal and used for comparison of obesity. The epididymal WAT was fixed at 4° C. for 72 hrs in ice-chilled 1× PBS containing 4% para-formaldehyde, and immersed at 4° C. for 72 hrs in a 20% sucrose phosphate buffer for cryoprotection. The fixed tissue was frozen with O.C.T compound (A. O. USA), and 10 μm coronal sections were made in coronal planes (Leica cryostat CM 3050, Germany). The sections were mounted on probe-on, positively charged slides and thawed at room temperature for 3 hrs. […] Cover slips were mounted on the slides which were observed under a […] at 400× magnification.

A further experiment relates to GABAB receptor. In words: Expression of GABAB receptor in the hypothalamus by Western blotting. Format: in vivo, rat. Conditions: rats administered anthocyanin orally, 40 days, versus control; Western blot densitometry. As to the method:
To examine the effect of an obesity prevention and treatment agent on the expression of GABAB receptor, the animals maintained as in Example 1 were collectively sacrificed at 10:00 AM 40 days after the oral administration, and the hypothalamus was excised from each of them. The hypothalamic sample was homogenized in 0.2 M PBS containing a protease inhibitor cocktail. Protein levels were measured using a Bio-Rad protein analysis solution, and after two rounds of ultracentrifugation at 4° C. and 12,000 rpm for 20 min, the supernatants containing proteins were separated. […] This membrane was blocked with 5% (v/v) skim milk to reduce non-specific binding, and incubated with a primary goat anti-GABABR1 antibody (1:200; Santa Cruz Biotechnology, Santa Cruz, Calif., USA) and an anti-beta-actin antibody for quantitative comparison, followed by immune reaction with a secondary HRP (horseradish peroxidase)-conjugated anti-goat and anti-rabbit IgG (1:1000; Santa Cruz Biotechnology, Santa Cruz, Calif., USA). Protein levels were determined by chemiluminescence using ECL-detecting reagent (Amersham Pharmacia Biotech, Western blotting detection reagents). Western blots on the X-ray film were analyzed by densitometry using computer-based Sigma Gel (SPSS Inc. Chicago, USA), and the results are shown in FIG. 3.

The test system of the next experiment is neuropeptide Y. The experiment in a line: Expression of neuropeptide Y in the hypothalamus by Western blotting. It is filed as in vivo, rat. The conditions noted are these: oral anthocyanin 24 mg, 40 days, versus control; Western blot.

With `CCCCCCCCCCC[C@@H](C[C@@H]1OC(=O)[C@H]1CCCCCC)OC(=O)[C@H](CC(C)C)NC=O` [Orlistat], the “reduction of fat absorption” value in experiment [1] is given as “about 30%”.
Regarding anthocyanin, the “expression level of PKA-α in the hypothalamus” value in the experiment with PKA-α is “decrease”. Also, the “expression level of p-CREB in the hypothalamus” value in the experiment with p-CREB is given as “increase”. Further, the weight increase stood at 69 g in experiment [2] (oral anthocyanin 6 mg) and 69.67 g in experiment [2] (oral anthocyanin 24 mg). Also, the “weight at end of period” value turned out to be 101.33 g in experiment [2] (oral anthocyanin 6 mg, from 32.33 g) and 98 g in experiment [2] (oral anthocyanin 24 mg, from 28.33 g). For the same compound, the daily food uptake in experiment [2] (oral anthocyanin 24 mg, control 20.03 g) is listed as 16.43 g. The “number of adipocytes per unit area” value in experiment [3] (oral anthocyanin 6 mg) worked out at 22.47 cells/250 mm^2; in experiment [3] (oral anthocyanin 24 mg) it was 22.8 cells/250 mm^2. Besides, the “expression level of GABAB receptor in the hypothalamus” value with GABAB receptor is “increased”. In addition, the “expression level of neuropeptide Y in the hypothalamus” value in the experiment on neuropeptide Y is recorded as “decreased”.
